Results taken from publication PMC11831560, “Development of the Pyrido[2,3-d]pyrimidin-7(8H)-one Scaffold toward Potent and Selective NUAK1 Inhibitors” (ACS Medicinal Chemistry Letters, 2025).
“And” between values parts separate entries of the source, which are not always exact repeats. Identical values can stand only once.

Experiments:
MARK2 = target: T1, MARK2 (Homo sapiens, UniProt Q7KZI7); experiment: Kinase panel radiometric filter binding (33P-ATP); type: biochemical; parameters: % activity remaining: dose or concentration left out as unconfirmed; conditions: for % activity remaining: MARK2
T1 construct: purchased MRC PPU
T1 sequence (Q7KZI7 whole entry): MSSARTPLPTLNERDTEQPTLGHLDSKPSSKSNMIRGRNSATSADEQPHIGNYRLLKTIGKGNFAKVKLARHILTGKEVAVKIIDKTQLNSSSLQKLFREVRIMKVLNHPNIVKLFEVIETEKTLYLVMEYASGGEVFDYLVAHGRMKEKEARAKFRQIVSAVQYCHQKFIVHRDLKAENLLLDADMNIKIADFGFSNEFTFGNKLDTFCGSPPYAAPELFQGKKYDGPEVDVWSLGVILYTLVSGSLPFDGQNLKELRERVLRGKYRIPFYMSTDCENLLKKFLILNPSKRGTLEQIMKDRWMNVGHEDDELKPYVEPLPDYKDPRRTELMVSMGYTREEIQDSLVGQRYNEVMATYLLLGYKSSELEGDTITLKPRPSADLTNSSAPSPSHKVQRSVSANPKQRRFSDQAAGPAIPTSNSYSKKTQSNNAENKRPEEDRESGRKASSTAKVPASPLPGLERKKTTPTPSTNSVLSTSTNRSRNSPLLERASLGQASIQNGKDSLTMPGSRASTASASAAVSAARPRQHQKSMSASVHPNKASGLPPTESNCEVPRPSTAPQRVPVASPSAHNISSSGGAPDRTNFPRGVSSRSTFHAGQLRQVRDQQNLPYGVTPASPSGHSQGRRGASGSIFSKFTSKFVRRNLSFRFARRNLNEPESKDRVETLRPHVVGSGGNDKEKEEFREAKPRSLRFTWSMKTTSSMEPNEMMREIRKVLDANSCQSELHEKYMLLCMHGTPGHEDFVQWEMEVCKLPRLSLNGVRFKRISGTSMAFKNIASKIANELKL
Protocol: (§1) Table S4: AMPKA kinase activity data (ADP-Glo assay)
(§2) Compound pIC50 (Fold selectivity
(§3) Table S5. Kinase selectivity screening for 9 and 24 at 1 µM against a general kinase panel of 140 targets
(§4) in radiometric filter binding assay using 33P-γ−ATP at the MRC PPU International Centre for Kinase
(§5) Profiling, University of Dundee. pIC50 values were determined for compounds with <20% activity
(§6) Kinase activity s.d. pIC50 activity s.d. pIC50

MELK = MELK (Homo sapiens, UniProt Q14680); experiment: Kinase panel radiometric filter binding (33P-ATP); type: biochemical; parameters: % activity remaining: dose or concentration left out as unconfirmed; conditions: for % activity remaining: MELK
Sequence of MELK (Q14680 whole entry, species assumed): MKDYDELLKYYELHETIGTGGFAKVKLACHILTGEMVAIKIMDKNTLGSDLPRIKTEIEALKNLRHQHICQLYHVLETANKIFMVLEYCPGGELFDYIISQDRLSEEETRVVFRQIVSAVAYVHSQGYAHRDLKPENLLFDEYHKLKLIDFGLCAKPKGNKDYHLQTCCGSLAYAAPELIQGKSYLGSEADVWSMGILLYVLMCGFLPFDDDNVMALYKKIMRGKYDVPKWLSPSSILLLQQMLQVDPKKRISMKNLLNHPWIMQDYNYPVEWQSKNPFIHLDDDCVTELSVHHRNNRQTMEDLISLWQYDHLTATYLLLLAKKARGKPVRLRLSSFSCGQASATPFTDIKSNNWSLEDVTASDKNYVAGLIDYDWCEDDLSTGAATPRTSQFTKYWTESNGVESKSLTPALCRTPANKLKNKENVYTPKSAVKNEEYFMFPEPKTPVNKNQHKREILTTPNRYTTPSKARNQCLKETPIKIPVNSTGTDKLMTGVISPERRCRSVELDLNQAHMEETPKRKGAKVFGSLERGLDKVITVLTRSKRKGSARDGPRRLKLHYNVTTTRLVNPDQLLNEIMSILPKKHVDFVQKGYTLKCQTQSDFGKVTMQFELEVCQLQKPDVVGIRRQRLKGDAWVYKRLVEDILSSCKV
Protocol: as §1, §2, §3, §4, §5, §6

TrkA = TrkA (Homo sapiens, UniProt P04629); experiment: Kinase panel radiometric filter binding (33P-ATP); type: biochemical; parameters: % activity remaining: dose or concentration left out as unconfirmed; conditions: for % activity remaining: TrkA
Sequence of TrkA (P04629 33-796, species assumed): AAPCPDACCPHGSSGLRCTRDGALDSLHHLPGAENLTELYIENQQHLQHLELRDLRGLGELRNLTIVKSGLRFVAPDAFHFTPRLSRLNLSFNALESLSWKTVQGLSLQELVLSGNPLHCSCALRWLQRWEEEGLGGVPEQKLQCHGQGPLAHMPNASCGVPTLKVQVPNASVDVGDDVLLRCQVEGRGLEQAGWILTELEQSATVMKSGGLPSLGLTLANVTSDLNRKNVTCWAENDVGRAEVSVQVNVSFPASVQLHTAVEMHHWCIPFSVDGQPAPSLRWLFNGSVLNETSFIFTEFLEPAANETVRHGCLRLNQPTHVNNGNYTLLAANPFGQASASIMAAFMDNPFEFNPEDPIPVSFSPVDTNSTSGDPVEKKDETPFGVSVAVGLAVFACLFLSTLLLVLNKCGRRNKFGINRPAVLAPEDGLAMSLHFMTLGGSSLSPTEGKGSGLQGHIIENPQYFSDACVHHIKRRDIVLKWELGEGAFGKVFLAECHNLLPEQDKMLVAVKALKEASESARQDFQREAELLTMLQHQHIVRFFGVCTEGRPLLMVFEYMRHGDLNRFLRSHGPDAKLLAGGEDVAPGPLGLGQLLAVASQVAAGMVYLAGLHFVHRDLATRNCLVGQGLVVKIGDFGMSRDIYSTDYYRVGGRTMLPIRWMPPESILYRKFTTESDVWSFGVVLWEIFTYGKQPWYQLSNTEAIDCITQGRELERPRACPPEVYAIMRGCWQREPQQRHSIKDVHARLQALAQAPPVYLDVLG
Protocol: as §1, §2, §3, §4, §5, §6

ULK2 = target: T2, ULK2 (Homo sapiens, UniProt Q8IYT8); experiment: Kinase panel radiometric filter binding (33P-ATP); type: biochemical; parameters: % activity remaining: dose or concentration left out as unconfirmed; conditions: for % activity remaining: ULK2
T2 sequence (Q8IYT8 1-1036): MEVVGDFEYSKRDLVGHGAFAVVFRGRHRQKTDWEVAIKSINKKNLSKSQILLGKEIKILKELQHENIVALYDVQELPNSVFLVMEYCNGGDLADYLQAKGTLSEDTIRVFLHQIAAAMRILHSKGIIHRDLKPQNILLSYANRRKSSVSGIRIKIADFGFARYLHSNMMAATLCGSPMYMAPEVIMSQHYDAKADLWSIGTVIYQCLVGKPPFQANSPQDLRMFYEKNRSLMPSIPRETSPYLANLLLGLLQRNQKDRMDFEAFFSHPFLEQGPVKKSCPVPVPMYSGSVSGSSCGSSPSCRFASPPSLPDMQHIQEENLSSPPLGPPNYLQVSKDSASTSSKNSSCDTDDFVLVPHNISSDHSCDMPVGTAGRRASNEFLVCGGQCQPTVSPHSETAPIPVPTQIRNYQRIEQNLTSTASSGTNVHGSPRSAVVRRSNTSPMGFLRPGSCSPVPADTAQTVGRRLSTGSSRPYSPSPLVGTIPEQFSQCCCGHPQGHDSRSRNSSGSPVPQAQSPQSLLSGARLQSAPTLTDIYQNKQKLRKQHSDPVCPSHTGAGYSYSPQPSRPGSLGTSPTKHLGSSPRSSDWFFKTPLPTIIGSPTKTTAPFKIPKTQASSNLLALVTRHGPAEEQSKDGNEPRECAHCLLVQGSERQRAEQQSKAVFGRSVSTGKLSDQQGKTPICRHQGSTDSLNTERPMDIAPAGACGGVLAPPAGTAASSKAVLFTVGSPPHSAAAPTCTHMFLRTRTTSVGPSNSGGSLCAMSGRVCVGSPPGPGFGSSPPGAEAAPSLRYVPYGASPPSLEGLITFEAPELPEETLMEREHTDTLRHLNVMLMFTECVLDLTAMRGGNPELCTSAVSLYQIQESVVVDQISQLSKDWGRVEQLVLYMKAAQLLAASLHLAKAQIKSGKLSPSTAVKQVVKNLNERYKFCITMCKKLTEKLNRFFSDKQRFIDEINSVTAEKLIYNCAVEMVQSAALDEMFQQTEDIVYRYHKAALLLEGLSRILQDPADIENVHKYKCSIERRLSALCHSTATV
Protocol: as §1, §2, §3, §4, §5, §6

[1] = Microsomal stability, human; type: in vitro ADME; conditions: human liver microsomes; read-out: HLM t1/2
Protocol: All single point assay determinations carried out in duplicate.
ADMET and PK experimental methods
Microsomal stability: analysis was performed by Cyprotex Discovery. […]

CDK4/D1 = system: CDK4/D1; parameters: method as in Reddy et al. 28; conditions: ref Reddy et al. 28; cited from earlier work
CDK6/D1 = system: CDK6/D1; parameters: method as in Reddy et al. 28; conditions: ref Reddy et al. 28; cited from earlier work
[2] = parameters: method as in PMID 24568969; conditions: mice, I.V. dosing 5 mgkg^–1; cited from earlier work
[3] = radiometric filter binding panel

For `Cc1cc(=O)n(C2CCCC2)c2nc(Nc3ccc(N4CC5CC(C4)N5C)cc3)ncc12` [Compound 9], the “% activity remaining” value (MARK2) was 98%, the inhibition at 1 µM (MARK2; at 1 μM, radiometric filter binding assay, Dundee, read-out: MARK2 single point % inhibition) was 2% and the “% activity remaining” value (MELK) was 6%. The “MELK pIC50” value (MELK; [3]) was > 7, the IC50 (MELK; radiometric filter binding panel, read-out: MELK pIC50 (converted)) was 53.7 nM and the IC50 (TrkA) was 97.7 nM. The “% activity remaining” value (TrkA) was 12%, the “TrkA pIC50” value (TrkA; [3]) was > 7 and the “% activity remaining” value (ULK2) was 17%. The “ULK2 pIC50” value (ULK2; [3]) was 7.4 and 7.39.

In the case of `CN1C2CC1CN(c1ccc(Nc3ncc4ccn(CC5CCOCC5)c4n3)cc1)C2` [Compound 24], the “% activity remaining” value (MARK2) is reported as 101%, the “% activity remaining” value (MELK) is reported as 95% and the “% activity remaining” value (TrkA) is reported as 72%. For the same compound, the “% activity remaining” value (ULK2) was 75%.

For `CN1CCN(c2ccc(Nc3ncc4cc(C#N)c(=O)n(C5CCCC5)c4n3)cc2)CC1` [Compound 3, Narazaciclib, reference compound], the half-life at 1 µM [1] is given as 6.9 min, the “CDK4/D1 pIC50” value (CDK4/D1) is given as 8.4 and the “CDK6/D1 pIC50” value (CDK6/D1) is given as 8.0. For the same compound, the “plasma half-life t1/2” value [2] was 90 min.
